We go through one compound from publication PMC10201364 (MicrobiologyOpen, 2023).

In general, EC50 refers to the concentration at which the effect is half-maximal.

Assay [1] concerns the target Ah‐BarR (S. acidocaldarius promoter P sa‐at, mKate2 reporter) (Acidianus hospitalis, UniProt F4B5V3). As to the kind of experiment: cell-based. On the procedure: (§1) Reporter gene assays were performed as previously described (Bernauw et al., [2022]). pPRC6 and pITC variants (Table 1) were co‐transformed in E. coli MG1655 chemical competent cells using heat shock transformation. Transformant colonies of the Ah‐BarR biosensor strains were picked to inoculate wells of a transparent 96‐well plate (Greiner Bio‐One), each well filled with 200 µL of MOPS EZ Rich Defined medium (Teknova), prepared without the addition of the 5X EZ Supplement, after which the plate was incubated overnight in a ThermoMixer C (Eppendorf) at 30°C and 300 rpm. Next, a black 96‐well plate was filled with a naringenin solution prepared in ethanol (250 mg/L or 2.5 g/L), after which a Breathe‐Easy sealing membrane (Sigma‐Aldrich) was applied and the ethanol was evaporated in a ThermoMixer C (Eppendorf) at 75°C. […] Finally, the plate was sealed again using a Breathe‐Easy sealing membrane (Sigma‐Aldrich).
(§2) Plates were incubated at 30°C and 300 rpm for 40 h in a Synergy H1 microplate reader (BioTek) with measurements of OD600 and fluorescence (excitation wavelength: 588 nm, emission wavelength: 633 nm) being taken every 20 min. The gain was set to 140 for all measurements, except for the measurements with the amino acids (pools and separately), where the gain was set to 150. […] In addition, wells solely containing medium were measured as well to correct for the background signal.
(§3) Reporter expression was analyzed at t = 30 h, when all cultures had reached the stationary phase, by taking into account three subsequent time points (t–1, t, t+1). The corrected FL/OD600 value was calculated for each replicate (n = 4) as follows: FL/ODcor=FLt−1−FLmed,t−1/ODt−1−ODmed,t−1+FLt−FLmed,t/ODt−ODmed,t+FLt+1−FLmed,t+1/ODt+1−ODmed,t+1/3
(§4) Response curves were fitted to a Hill function of the shape P(M)=b+aM^n/θ^n+M^nforaβ−alanine−inducible responseb+aθ^n/θ^n+M^nforaβ−alanine−repressible response according to a previously published procedure (Landry et al., [2018]) with minor adaptations. […] Briefly, lmfit 1.1.0 was used to fit all replicates of a response curve to the appropriate Hill function using the Levenberg‐Marquardt algorithm (Moré, [1978]; Newville et al., [2016]). […] The dynamic range was estimated as μ=a/b .
(§5) Additional in vivo experiments were performed on strains BS3 and BS4 using the S. acidocaldarius promoters P sa‐barR and P sa‐at , respectively, in combination with Ah‐BarR.

The target of assay [2] is Ah‐BarR (S. acidocaldarius promoter P sa‐barR, mKate2 reporter) (Acidianus hospitalis, UniProt F4B5V3). Description: cell-based. As to the method: as §1, §2, §3, §4, §5
Setting [3] is: BS4, β‐alanine 0–10 mM, 20 mg/L naringenin, Hill fit.
[4] abbreviates: BS3, β‐alanine 0–10 mM, 20 mg/L naringenin, Hill fit.

Ah‐BarR (S. acidocaldarius promoter P sa‐barR, mKate2 reporter), sequence (F4B5V3 1-165): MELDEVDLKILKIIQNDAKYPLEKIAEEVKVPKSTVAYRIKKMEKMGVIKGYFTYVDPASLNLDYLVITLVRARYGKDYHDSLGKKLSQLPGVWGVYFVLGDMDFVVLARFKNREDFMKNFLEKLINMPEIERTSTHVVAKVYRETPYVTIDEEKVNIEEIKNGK
Ah‐BarR (S. acidocaldarius promoter P sa‐at, mKate2 reporter), sequence (F4B5V3 1-165): as above

On to `NCCC(=O)O` [β‐alanine], for which the EC50 in assay [1] stood at 90 µM; in assay [2] it was 100 µM. The Hill coefficient n in assay [1] (BS4, 20 mg/L naringenin) worked out at 2.99; in assay [2] (BS3, 20 mg/L naringenin), 2.00. Also, the “Dynamic range µ” value in assay [1] (BS4, µ = a/b) is 5.15; in assay [2] (BS3, µ = a/b) it was 1.17. The “Basal fluorescence output b” value in assay [1] (setting [3]) is 13,873 RFU; in assay [2] (setting [4]), 4595 RFU. Besides, the entries for the “Maximum fluorescence increase a” value in assay [1] (setting [3]) and in assay [2] (setting [4]) were 71,426 RFU and 5355 RFU, respectively.
